# Source: PubChem BioAssay (NCI)
#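 Assay format: 96-well plates, 48-hour exposure. GI50: concentration for 50% inhibition of growth. TGI is the concentration that stops growth completely.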
# Tests used:
# Experiment in all cases: growth of human tumour cells (NCI), 48 h
# MOLT-4 leukemia = test system: MOLT-4 leukemia
# SK-MEL-28 melanoma = test system: SK-MEL-28 melanoma
# TK-10 renal = test system: TK-10 renal
# IGROV1 ovarian = test system: IGROV1 ovarian
# SNB-75 CNS = test system: SNB-75 CNS
# OVCAR-8 ovarian = test system: OVCAR-8 ovarian
# NCI/ADR-RES ovarian = test system: NCI/ADR-RES ovarian
# BT-549 breast = test system: BT-549 breast
# HOP-92 NSCLC = test system: HOP-92 NSCLC
# CCRF-CEM leukemia = test system: CCRF-CEM leukemia
# HOP-62 NSCLC = test system: HOP-62 NSCLC
# SK-OV-3 ovarian = test system: SK-OV-3 ovarian
# NCI-H522 lung = test system: NCI-H522 lung
# A549 NSCLC = test system: A549 NSCLC
# SK-MEL-2 melanoma = test system: SK-MEL-2 melanoma
# SF-295 CNS = test system: SF-295 CNS
# SF-539 CNS = test system: SF-539 CNS
# LOX IMVI melanoma = test system: LOX IMVI melanoma
# NCI-H226 lung = test system: NCI-H226 lung
# MCF7 breast = test system: MCF7 breast
# HCC-2998 colon = test system: HCC-2998 colon
# OVCAR-4 ovarian = test system: OVCAR-4 ovarian
# HL-60(TB) leukemia = test system: HL-60(TB) leukemia
# UO-31 renal = test system: UO-31 renal
# K-562 leukemia = test system: K-562 leukemia
# HS 578T breast = test system: HS 578T breast
# SK-MEL-5 melanoma = test system: SK-MEL-5 melanoma
# SW-620 colon = test system: SW-620 colon
# MDA-MB-231 breast = test system: MDA-MB-231 breast
# RPMI-8226 leukemia = test system: RPMI-8226 leukemia
# PC-3 prostate = test system: PC-3 prostate
# MDA-MB-435 = test system: MDA-MB-435
# SR leukemia = test system: SR leukemia
# UACC-257 melanoma = test system: UACC-257 melanoma
# UACC-62 melanoma = test system: UACC-62 melanoma
# EKVX NSCLC = test system: EKVX NSCLC
# NCI-H23 lung = test system: NCI-H23 lung
# ACHN renal = test system: ACHN renal
# M14 melanoma = test system: M14 melanoma
# SF-268 CNS = test system: SF-268 CNS
# NCI-H460 lung = test system: NCI-H460 lung
# KM12 colon = test system: KM12 colon
# HCT-15 colon = test system: HCT-15 colon
# T-47D breast = test system: T-47D breast
# COLO 205 colon = test system: COLO 205 colon
# 786-0 renal = test system: 786-0 renal
# CAKI-1 renal = test system: CAKI-1 renal
# HCT-116 colon = test system: HCT-116 colon
# SN12C renal = test system: SN12C renal
# HT29 colon = test system: HT29 colon
# U251 CNS = test system: U251 CNS
# A498 renal = test system: A498 renal
# OVCAR-5 ovarian = test system: OVCAR-5 ovarian
# DU-145 prostate = test system: DU-145 prostate
# MALME-3M melanoma = test system: MALME-3M melanoma
# RXF 393 renal = test system: RXF 393 renal
# SNB-19 CNS = test system: SNB-19 CNS
compound,measurement,setting,value
Cc1ccc(C)c(COc2cc(NC(=O)c3ccc4c(c3)OCO4)ccc2N(C)S(C)(=O)=O)c1,GI50,MOLT-4 leukemia,228 nM
same,TGI,MOLT-4 leukemia,> 100000 nM
same,GI50,SK-MEL-28 melanoma,3740 nM
same,TGI,SK-MEL-28 melanoma,> 100000 nM
same,GI50,TK-10 renal,402 nM
same,TGI,TK-10 renal,> 100000 nM
same,GI50,IGROV1 ovarian,237 nM
same,TGI,IGROV1 ovarian,> 100000 nM
same,GI50,SNB-75 CNS,111 nM
same,TGI,SNB-75 CNS,1180 nM
same,GI50,OVCAR-8 ovarian,286 nM
same,TGI,OVCAR-8 ovarian,> 100000 nM
same,GI50,NCI/ADR-RES ovarian,56.2 nM
same,TGI,NCI/ADR-RES ovarian,407 nM
same,GI50,BT-549 breast,374 nM
same,TGI,BT-549 breast,> 100000 nM
same,GI50,HOP-92 NSCLC,2590 nM
same,TGI,HOP-92 NSCLC,> 100000 nM
same,GI50,CCRF-CEM leukemia,86.6 nM
same,TGI,CCRF-CEM leukemia,> 100000 nM
same,GI50,HOP-62 NSCLC,570 nM
same,TGI,HOP-62 NSCLC,> 100000 nM
same,GI50,SK-OV-3 ovarian,217 nM
same,TGI,SK-OV-3 ovarian,> 100000 nM
same,GI50,NCI-H522 lung,81.5 nM
same,TGI,NCI-H522 lung,424 nM
same,GI50,A549 NSCLC,282 nM
same,TGI,A549 NSCLC,> 36900 nM
same,GI50,SK-MEL-2 melanoma,595 nM
same,GI50,SF-295 CNS,62.1 nM
same,TGI,SF-295 CNS,439 nM
same,GI50,SF-539 CNS,118 nM
same,TGI,SF-539 CNS,790 nM
same,GI50,LOX IMVI melanoma,79.3 nM
same,TGI,LOX IMVI melanoma,> 100000 nM
same,GI50,NCI-H226 lung,904 nM
same,TGI,NCI-H226 lung,> 100000 nM
same,GI50,MCF7 breast,71.6 nM
same,TGI,MCF7 breast,> 100000 nM
same,GI50,HCC-2998 colon,132 nM
same,TGI,HCC-2998 colon,397 nM
same,GI50,OVCAR-4 ovarian,648 nM
same,TGI,OVCAR-4 ovarian,> 100000 nM
same,GI50,HL-60(TB) leukemia,38.7 nM
same,TGI,HL-60(TB) leukemia,489 nM
same,GI50,UO-31 renal,348 nM
same,TGI,UO-31 renal,> 100000 nM
same,GI50,K-562 leukemia,44.6 nM
same,TGI,K-562 leukemia,> 100000 nM
same,GI50,HS 578T breast,36.3 nM
same,TGI,HS 578T breast,307 nM
same,GI50,SK-MEL-5 melanoma,172 nM
same,TGI,SK-MEL-5 melanoma,1670 nM
same,GI50,SW-620 colon,77.8 nM
same,TGI,SW-620 colon,> 100000 nM
same,GI50,MDA-MB-231 breast,231 nM
same,TGI,MDA-MB-231 breast,798 nM
same,GI50,RPMI-8226 leukemia,319 nM
same,TGI,RPMI-8226 leukemia,> 100000 nM
same,GI50,PC-3 prostate,131 nM
same,TGI,PC-3 prostate,> 100000 nM
same,GI50,MDA-MB-435,24.8 nM
same,TGI,MDA-MB-435,71.8 nM
same,GI50,SR leukemia,45.7 nM
same,TGI,SR leukemia,> 100000 nM
same,GI50,UACC-257 melanoma,1870 nM
same,TGI,UACC-257 melanoma,> 100000 nM
same,GI50,UACC-62 melanoma,179 nM
same,TGI,UACC-62 melanoma,> 100000 nM
same,GI50,EKVX NSCLC,466 nM
same,TGI,EKVX NSCLC,> 100000 nM
same,GI50,NCI-H23 lung,213 nM
same,TGI,NCI-H23 lung,> 100000 nM
same,GI50,ACHN renal,420 nM
same,TGI,ACHN renal,> 100000 nM
same,GI50,M14 melanoma,65.7 nM
same,TGI,M14 melanoma,560 nM
same,GI50,SF-268 CNS,310 nM
same,TGI,SF-268 CNS,> 100000 nM
same,GI50,NCI-H460 lung,139 nM
same,TGI,NCI-H460 lung,711 nM
same,GI50,KM12 colon,77 nM
same,TGI,KM12 colon,1060 nM
same,GI50,HCT-15 colon,127 nM
same,TGI,HCT-15 colon,> 100000 nM
same,GI50,T-47D breast,807 nM
same,TGI,T-47D breast,> 100000 nM
same,GI50,COLO 205 colon,257 nM
same,TGI,COLO 205 colon,816 nM
same,GI50,786-0 renal,192 nM
same,GI50,CAKI-1 renal,160 nM
same,TGI,CAKI-1 renal,> 100000 nM
same,GI50,HCT-116 colon,66.2 nM
same,TGI,HCT-116 colon,1120 nM
same,GI50,SN12C renal,447 nM
same,TGI,SN12C renal,> 100000 nM
same,GI50,HT29 colon,114 nM
same,TGI,HT29 colon,2340 nM
same,GI50,U251 CNS,238 nM
same,TGI,U251 CNS,> 46800 nM
same,GI50,A498 renal,122 nM
same,TGI,A498 renal,853 nM
same,GI50,OVCAR-5 ovarian,513 nM
same,TGI,OVCAR-5 ovarian,> 100000 nM
same,GI50,DU-145 prostate,172 nM
same,TGI,DU-145 prostate,543 nM
same,GI50,MALME-3M melanoma,111 nM
same,TGI,MALME-3M melanoma,> 100000 nM
same,GI50,RXF 393 renal,128 nM
same,TGI,RXF 393 renal,403 nM
same,GI50,SNB-19 CNS,332 nM
same,TGI,SNB-19 CNS,> 100000 nM
